Experimental data as given in patent US11098041B2 (Merck Patent GmbH, priority 2014, dated 2021).
pIC50: −log10 of the molar value.

Columns and labels:
[1] = target: full-length human BTK (Homo sapiens (Human), UniProt Q06187); experiment: Assay A: microfluidic off-chip mobility shift assay against BTK enzyme; format: biochemical
[2] = test system: anti-IgM-induced expression of CD69 on CD19 positive cells (B cells) in human PBMCs; experiment: Assay C: PBMC IC50 assay (anti-IgM-induced CD69 expression); format: cell-based; details: anti-IgM stimulation
Description: Btk is critical for mediating the signalling of B cell antigen receptor (BCR) after anti-IgM stimulation. Based on this principle, a functional cell-based assay was established to determine the potency of compounds at inhibiting anti-IgM-induced expression of CD69, a downstream BCR signaling event, in freshly isolated human peripheral blood mononuclear cells (PBMCs). In the assay, a 90 μl PBMC suspension containing 2.5×10^5 cells was pre-treated with 10 μl of test compound at various concentrations for an hour, and then incubated overnight (approximately 16-18 hours) with 5 μl 420 μg/ml affiniPure F(ab′)2 fragment goat anti-human IgM Fc fragment per well (Dianova, Cat. No.: 109-006-129). After the incubation, the cells were washed and immunostained with an APC-labeled mouse anti-human CD69 (BD Biosciences; clone: FN50), a PerCP-Cy5.5 labelled mouse anti-human CD19 (BD Biosciences; clone: SJ25C1) and a FITC-labelled mouse anti-human CD3 (BD Biosciences; clone: HIT3a), and fixed for flow cytometric analysis of CD69 expression on CD19 positive cells (B cells). The percentage of CD69 expressing CD19 positive cells was plotted against the concentrations of test compounds to obtain a concentration response curve, and calculate an IC50 value as a measure of the potency of test compounds in the assay.

[3] = target: BTK C481S (His-TEV-hsBTK(328-659)(C481S)) (Homo sapiens (Human), UniProt Q06187, C481S); experiment: Assay B: microfluidic off-chip mobility shift assay against BTK C481S enzyme; format: biochemical; details: BTK C481S mutant
Sequence of BTK C481S (His-TEV-hsBTK(328-659)(C481S)) (Q06187 328-659 C481S): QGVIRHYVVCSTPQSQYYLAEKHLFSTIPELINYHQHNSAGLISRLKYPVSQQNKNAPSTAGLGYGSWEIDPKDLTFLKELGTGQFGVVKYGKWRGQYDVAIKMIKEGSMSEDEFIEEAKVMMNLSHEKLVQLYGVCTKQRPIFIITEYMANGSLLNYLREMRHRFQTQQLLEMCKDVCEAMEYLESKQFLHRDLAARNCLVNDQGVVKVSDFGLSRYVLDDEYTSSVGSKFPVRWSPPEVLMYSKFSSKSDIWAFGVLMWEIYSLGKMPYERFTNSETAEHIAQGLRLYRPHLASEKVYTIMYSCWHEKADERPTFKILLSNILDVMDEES
Outline: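 Substrate-to-phosphopeptide conversion quantified by microfluidic mobility shift with laser-induced fluorescence; IC50 and efficacy from log[inhibitor] vs. % activity.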

Sequence of full-length human BTK (Q06187 whole entry): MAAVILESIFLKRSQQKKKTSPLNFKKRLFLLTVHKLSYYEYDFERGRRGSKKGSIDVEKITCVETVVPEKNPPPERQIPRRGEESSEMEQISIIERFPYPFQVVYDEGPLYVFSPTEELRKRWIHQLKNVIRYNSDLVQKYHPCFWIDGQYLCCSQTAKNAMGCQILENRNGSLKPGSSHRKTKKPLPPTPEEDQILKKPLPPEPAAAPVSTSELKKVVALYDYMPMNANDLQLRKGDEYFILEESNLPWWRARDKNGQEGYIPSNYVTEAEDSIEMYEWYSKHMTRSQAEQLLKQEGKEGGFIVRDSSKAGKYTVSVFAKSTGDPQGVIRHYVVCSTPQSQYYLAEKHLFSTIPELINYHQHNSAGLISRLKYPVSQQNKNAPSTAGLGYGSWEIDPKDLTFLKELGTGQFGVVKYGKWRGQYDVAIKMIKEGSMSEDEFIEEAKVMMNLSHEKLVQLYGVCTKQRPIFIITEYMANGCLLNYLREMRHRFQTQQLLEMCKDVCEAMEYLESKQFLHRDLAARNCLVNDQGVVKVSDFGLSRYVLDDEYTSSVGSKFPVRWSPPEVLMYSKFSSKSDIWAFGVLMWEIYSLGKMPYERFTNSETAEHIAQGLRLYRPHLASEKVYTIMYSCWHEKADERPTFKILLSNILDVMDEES

SMILES	pIC50 [1]	pIC50 [2]	pIC50 [3]
CC(C)(C)c1nc(C(=O)NCc2ccc(-c3ccnc4[nH]c(-c5ccc(N6CCCCC6)cn5)nc34)cc2F)no1 [Example 83, 5-tert-Butyl-N-[(2-fluoro-4-[2-[5-(piperidin-1-yl)pyridin-2-yl]-3H-imidazo[4,5-b]pyridin-7-yl]phenyl)methyl]-1,2,4-oxadiazole-3-carboxamide]	> 7.00	> 7.00	> 7.00
Cn1cc(-c2nc3c(-c4ccc(C(C)(C)NC(=O)c5ccc(C(C)(C)C)cc5)c(F)c4)ccnc3[nH]2)cn1 [Example 106, 4-tert-Butyl-N-(1-{2-fluoro-4-[2-(1-methyl-1H-pyrazol-4-yl)-3H-imidazo[4,5-b]pyridin-7-yl]-phenyl}-1-methyl-ethyl)-benzamide]	> 7.00	6.00 to 7.00	6.00 to 7.00
Cc1cc(-c2ccnc3[nH]c(-c4cnn(C)c4)nc23)ccc1CNC(=O)c1nnc(C(C)(C)C)o1 [Example 103, 5-tert-Butyl-[1,3,4]oxadiazole-2-carboxylic acid 2-methyl-4-[2-(1-methyl-1H-pyrazol-4-yl)-3H-imidazo[4,5-b]pyridin-7-yl]-benzylamide]	> 7.00	> 7.00	> 7.00
CC(C)(C)c1nc(C(=O)NCc2ccc(-c3ccnc4[nH]c(-c5ccc(N6CCCC6)cn5)nc34)cc2F)no1 [Example 80, 5-tert-Butyl-N-[(2-fluoro-4-[2-[5-(pyrrolidin-1-yl)pyridin-2-yl]-3H-imidazo[4,5-b]pyridin-7-yl]phenyl)methyl]-1,2,4-oxadiazole-3-carboxamide]	> 7.00	6.00 to 7.00	> 7.00
CN1CC=C(c2ccc(-c3nc4c(-c5ccc(CNC(=O)c6noc(C(C)(C)C)n6)c(F)c5)ccnc4[nH]3)cc2)CC1 [Example 86, 5-tert-Butyl-N-[(2-fluoro-4-[2-[4-(1-methyl-1,2,3,6-tetrahydropyridin-4-yl)phenyl]-3H-imidazo[4,5-b]pyridin-7-yl]phenyl)methyl]-1,2,4-oxadiazole-3-carboxamide; Trifluoroacetic Acid]	> 7.00	> 7.00	> 7.00
CC(C)(C)c1nnc(C(=O)NCc2ccc(-c3ccnc4[nH]c(C5=CCNCC5)nc34)cc2F)o1 [Example 140, 5-tert-Butyl-[1,3,4]oxadiazole-2-carboxylic acid 2-fluoro-4-[2-(1,2,3,6-tetrahydro-pyridin-4-yl)-3H-imidazo[4,5-b]pyridin-7-yl]-benzylamide]	> 7.00	5.30 to 6.00	> 7.00
CN(C)c1ccc(-c2nc3c(-c4cccc(N5CCOc6cc(C7CC7)cc(F)c6C5=O)c4CO)ccnc3[nH]2)cc1 [Example 39, 8-Cyclopropyl-4-(3-[2-[4-(dimethylamino)phenyl]-3H-imidazo[4,5-b]pyridin-7-yl]-2-(hydroxymethyl)phenyl)-6-fluoro-2,3,4,5-tetrahydro-1,4-benzoxazepin-5-one]	> 7.00	5.30 to 6.00	> 7.00
COc1ccc(-c2nc3c(-c4ccc(CN5CCOc6cc(C7CC7)cc(F)c6C5=O)c(F)c4)ccnc3[nH]2)nc1 [Example 40, 8-Cyclopropyl-6-fluoro-4-([2-fluoro-4-[2-(5-methoxypyridin-2-yl)-3H-imidazo[4,5-b]pyridin-7-yl]phenyl]methyl)-2,3,4,5-tetrahydro-1,4-benzoxazepin-5-one]	> 7.00	6.00 to 7.00	> 7.00
Cn1cc(-c2nc3c(-c4cccc(NC(=O)c5ccc(C6CC6)nc5)c4CO)ccnc3[nH]2)cn1 [Example 49, 6-Cyclopropyl-N-[2-(hydroxymethyl)-3-[2-(1-methyl-1H-pyrazol-4-yl)-3H-imidazo[4,5-b]pyridin-7-yl]phenyl]pyridine-3-carboxamide]	> 7.00	6.00 to 7.00	> 7.00
O=C(c1ccc(-c2nc3c(-c4cccc(N5CCOc6cc(C7CC7)cc(F)c6C5=O)c4CO)ccnc3[nH]2)cc1)N1CCOCC1 [Example 1, 8-Cyclopropyl-6-fluoro-4-[2-(hydroxymethyl)-3-(2-[4-[(morpholin-4-yl)carbonyl]phenyl]-3H-imidazo [4,5-b]pyridin-7-yl)phenyl]-2,3,4,5-tetrahydro-1,4-benzoxazepin-5-one]	> 7.00	5.30 to 6.00	
CC(C)(C)c1nc(C(=O)NCc2ccc(-c3ccnc4[nH]c(C5=CCNCC5)nc34)cc2F)no1 [Example 134, 5-tert-Butyl-[1,2,4]oxadiazole-3-carboxylic acid 2-fluoro-4-[2-(1,2,3,6-tetrahydro-pyridin-4-yl)-3H-imidazo[4,5-b]pyridin-7-yl]-benzylamide]	> 7.00	6.00 to 7.00	
CN1CC=C(c2ccc(-c3nc4c(-c5ccc(CNC(=O)c6noc(C(C)(C)C)n6)c(F)c5)ccnc4[nH]3)nc2)CC1 [Example 85, 5-tert-Butyl-N-[(2-fluoro-4-[2-[5-(1-methyl-1,2,3,6-tetrahydropyridin-4-yl)pyridin-2-yl]-3H-imidazo [4,5-b]pyridin-7-yl]phenyl)methyl]-1,2,4-oxadiazole-3-carboxamide; trifluoroacetic acid]	> 7.00	6.00 to 7.00	
C=CC(=O)Nc1ccccc1-c1nc2nccc(-c3ccc(CNC(=O)c4nc(C(C)(C)C)no4)c(F)c3)c2[nH]1 [Example 160, 3-tert-butyl-N-[(2-fluoro-4-[2-[2-(prop-2-enamido)phenyl]-3H-imidazo[4,5-b]pyridin-7-yl]phenyl)methyl]-1,2,4-oxadiazole-5-carboxamide]	> 7.00	> 7.00	
COc1cccc(-c2nc3c(-c4ccc(CNC(=O)c5ccc(C6CC6)cc5)c(F)c4)ccnc3[nH]2)c1 [Example 64, 4-Cyclopropyl-N-([2-fluoro-4-[2-(3-methoxyphenyl)-3H-imidazo[4,5-b]pyridin-7-yl]phenyl]methyl) benzamide]	> 7.00	6.00 to 7.00	
CN1CCN(Cc2ccc(-c3nc4c(-c5ccc(CNC(=O)c6noc(C(C)(C)C)n6)c(F)c5)ccnc4[nH]3)nc2)CC1 [Example 69, 5-tert-Butyl-N-[[2-fluoro-4-(2-[5-[(4-methylpiperazin-1-yl)methyl]pyridin-2-yl]-3H-imidazo[4,5-b]pyridin-7-yl)phenyl]methyl]-1,2,4-oxadiazole-3-carboxamide]	> 7.00	> 7.00	
C=CC(=O)Nc1cccc(-c2nc3nccc(-c4ccc(CNC(=O)c5nc(C(C)(C)C)no5)c(F)c4)c3[nH]2)c1 [Example 163, 3-tert-butyl-N-[(2-fluoro-4-[2-[3-(prop-2-enamido)phenyl]-3H-imidazo[4,5-b]pyridin-7-yl]phenyl)methyl]-1,2,4-oxadiazole-5-carboxamide]	> 7.00	> 7.00	
Cn1cc(-c2nc3c(-c4cccc(N5CCc6cc(C7CC7)ccc6C5=O)c4CO)ccnc3[nH]2)cn1 [Example 7, 6-cyclopropyl-2-(2-(hydroxymethyl)-3-(2-(1-methyl-1H-pyrazol-4-yl)-3H-imidazo[4,5-b]pyridin-7-yl)phenyl)-3,4-dihydroisoquinolin-1(2H)-one]	> 7.00	5.30 to 6.00	
Cn1cc(-c2nc3c(-c4cnc(CNC(=O)c5noc(C(C)(C)C)n5)c(F)c4)ccnc3[nH]2)cn1 [Example 12, 5-tert-Butyl-[1,2,4]oxadiazole-3-carboxylic acid {3-fluoro-5-[2-(1-methyl-1H-pyrazol-4-yl)-3H-imidazo[4,5-b]pyridin-7-yl]-pyridin-2-ylmethyl}-amide]	> 7.00	6.00 to 7.00	
Cn1cc(-c2nc3c(-c4ccc(CNC(=O)c5noc(C6CC6)n5)c(F)c4)ccnc3[nH]2)cn1 [Example 59, 5-Cyclopropyl-N-([2-fluoro-4-[2-(1-methyl-1H-pyrazol-4-yl)-3H-imidazo[4,5-b]pyridin-7-yl]phenyl]methyl)-1,2,4-oxadiazole-3-carboxamide]	> 7.00	6.00 to 7.00	
CN(C)C(=O)N1CC=C(c2nc3c(-c4ccc(CNC(=O)c5noc(C(C)(C)C)n5)c(F)c4)ccnc3[nH]2)CC1 [Example 143, 4-[7-(4-{[(5-tert-Butyl-[1,2,4]oxadiazole-3-carbonyl)-amino]-methyl}-3-fluoro-phenyl)-3H-imidazo[4,5-b]pyridin-2-yl]-3,6-dihydro-2H-pyridine-1-carboxylic Acid Dimethylamide]	> 7.00	> 7.00	
Cc1c(NC(=O)c2ccc3c(c2)OCC3(C)C)cc(F)cc1-c1ccnc2[nH]c(-c3ccc(C(=O)N4CCOCC4)cc3)nc12 [Example 4, N-[5-Fluoro-2-methyl-3-(2-[4-[(morpholin-4-yl)carbonyl]phenyl]-3H-imidazo[4,5-b]pyridin-7-yl)phenyl]-3,3-dimethyl-2,3-dihydro-1-benzofuran-6-carboxamide]	> 7.00	6.00 to 7.00	
CC(C)(C)c1noc(C(=O)NCc2ccc(-c3ccnc4[nH]c(-c5ccc(N6CCC(F)(F)CC6)cn5)nc34)cc2F)n1 [Example 164, 3-tert-butyl-N-[(4-[2-[5-(4,4-difluoropiperidin-1-yl)pyridin-2-yl]-3H-imidazo[4,5-b]pyridin-7-yl]-2-fluorophenyl)methyl]-1,2,4-oxadiazole-5-carboxamide]	> 7.00	6.00 to 7.00	
